Reference: patent US20170226081A1, “GLUCOSE TRANSPORT INHIBITORS” (Bayer Pharma Aktiengesellschaft, priority 2014, published 2017)

Biological target: T1, GLUT1 (Homo sapiens, UniProt P11166)
T1 construct: endogenous in cells
T1 sequence (P11166 1-492): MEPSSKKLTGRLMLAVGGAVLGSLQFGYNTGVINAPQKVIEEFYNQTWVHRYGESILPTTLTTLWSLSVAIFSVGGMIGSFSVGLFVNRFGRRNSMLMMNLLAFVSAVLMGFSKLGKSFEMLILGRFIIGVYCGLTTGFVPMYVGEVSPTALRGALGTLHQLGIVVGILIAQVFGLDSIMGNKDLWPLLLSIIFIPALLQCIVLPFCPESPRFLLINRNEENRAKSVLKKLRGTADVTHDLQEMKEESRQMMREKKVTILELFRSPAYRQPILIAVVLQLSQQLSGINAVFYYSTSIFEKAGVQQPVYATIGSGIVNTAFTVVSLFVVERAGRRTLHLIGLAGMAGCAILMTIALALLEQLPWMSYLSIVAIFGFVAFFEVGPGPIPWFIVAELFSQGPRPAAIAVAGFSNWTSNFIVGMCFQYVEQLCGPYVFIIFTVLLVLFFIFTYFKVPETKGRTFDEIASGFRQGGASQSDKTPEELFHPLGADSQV
Experiment: Indirect measurement of GLUT activity by quantification of intracellular ATP levels (glucose induced ATP increase)
Type: cell-based
Details: DLD1 cells; 1 mM glucose, 1 uM Rotenone, 15 min; standardized to cytochalasin B IC50 values; read-out: IC50 regarding glucose induced ATP increase (GLUT1 inhibition)
Text: It is well known that a combination of small-molecule inhibitors of mitochondrial electron transport chain and glucose catabolism synergistically suppress ATP production and impair cellular viability (Ulanovskaya et al., 2008, 2011; Liu, et al. 2001). We therefore used DLD1 or CHO-K1 cells in combination with an oxidative phosphorylation inhibitor to identify GLUT inhibitors. Cell lines were maintained in DMEM medium supplemented with 10% FCS and 1% Penicillin-Streptomycin solution and 2% Glutamax. The cells were treated with trypsin and seeded into 384 plates at a density of 4000 cells/well. The cells were then cultured overnight in glucose free media containing 1% FCS to reduce intracellular ATP levels. After 24 h the cells were incubated at 37° C. containing the appropriate glucose or in case of GLUT2 fructose concentration (1 mM and 30 mM respectively) with or without compounds and 1 uM Rotenone for 15 min. The CellTiter-Glo® Luminescent Cell Viability Assay from Promega was then used to measure ATP levels. Compounds able to reduce the ATP Levels within 15 min of glucose application were considered to be glucose uptake inhibitors.

Structure (SMILES) | IC50 [nM]
N#Cc1ccc(Cn2cc(NC(=O)c3cc(C(F)(F)F)nc4ccc(Br)cc34)c(C(N)=O)n2)cc1 [Example 28, 6-bromo-N-[3-carbamoyl-1-(4-cyanobenzyl)-1H-pyrazol-4-yl]-2-(trifluoromethyl)quinoline-4-carboxamide] | 544
CN(C)C(=O)c1nn(Cc2ccc(C#N)cc2)cc1NC(=O)c1cc(C(F)(F)F)nc2ccc(Br)cc12 [Example 29, 6-bromo-N-[1-(4-cyanobenzyl)-3-(dimethylcarbamoyl)-1H-pyrazol-4-yl]-2-(trifluoromethyl)quinoline-4-carboxamide] | 1700
COCCNC(=O)c1nn(Cc2ccc(C#N)cc2)cc1NC(=O)c1cc(C(F)(F)F)nc2ccc(Br)cc12 [Example 30, 6-bromo-N-{1-(4-cyanobenzyl)-3-[(2-methoxyethyl)carbamoyl]-1H-pyrazol-4-yl}-2-(trifluoromethyl)quinoline-4-carboxamide] | 7490
O=C(Nc1cn(Cc2ccc(F)cc2)nc1C(F)(F)F)c1cc(C(F)(F)F)nc2ccc(Br)cc12 [Example 31, 6-bromo-N-[1-(4-fluorobenzyl)-3-(trifluoromethyl)-1H-pyrazol-4-yl]-2-(trifluoromethyl)quinoline-4-carboxamide] | 1180
O=C(Nc1cn(Cc2ccc(F)cc2)nc1C(F)(F)F)c1cc(C(F)(F)F)nc2c(Cl)cc(Cl)cc12 [Example 32, 6,8-dichloro-N-[1-(4-fluorobenzyl)-3-(trifluoromethyl)-1H-pyrazol-4-yl]-2-(trifluoromethyl)quinoline-4-carboxamide] | 763
Cc1ccc2nc(C)cc(C(=O)Nc3cn(Cc4ccc(F)cc4)nc3C(F)(F)F)c2c1 [Example 33, N-[1-(4-fluorobenzyl)-3-(trifluoromethyl)-1H-pyrazol-4-yl]-2,6-dimethylquinoline-4-carboxamide] | 183
O=C(Nc1cn(Cc2ccc(F)cc2)nc1C(F)(F)F)c1cc(C(F)(F)F)nc2cc(F)c(F)cc12 [Example 34, 6,7-difluoro-N-[1-(4-fluorobenzyl)-3-(trifluoromethyl)-1H-pyrazol-4-yl]-2-(trifluoromethyl)quinoline-4-carboxamide] | 2040
N#Cc1ccc(Cn2cc(NC(=O)c3cc(C(N)=O)nc4cc(F)c(Cl)cc34)c(C(F)(F)F)n2)cc1 [Example 35, 6-chloro-N^4-[1-(4-cyanobenzyl)-3-(trifluoromethyl)-1H-pyrazol-4-yl]-7-fluoroquinoline-2,4-dicarboxamide] | 4.4
N#Cc1ccc(Cn2cc(NC(=O)c3cc(C(F)(F)F)nc4ccc(Br)cc34)c(C(F)(F)F)n2)cc1 [Example 36, 6-bromo-N-[1-(4-cyanobenzyl)-3-(trifluoromethyl)-1H-pyrazol-4-yl]-2-(trifluoromethyl)quinoline-4-carboxamide] | 84
COc1cc(C(=O)Nc2cn(Cc3ccc(C#N)cc3)nc2C(F)(F)F)c2ccccc2n1 [Example 37, N-[1-(4-cyanobenzyl)-3-(trifluoromethyl)-1H-pyrazol-4-yl]-2-methoxyquinoline-4-carboxamide] | 179
N#Cc1ccc(Cn2cc(NC(=O)c3cc(C(N)=O)nc4ccccc34)c(C(F)(F)F)n2)cc1 [Example 39, N^4-[1-(4-cyanobenzyl)-3-(trifluoromethyl)-1H-pyrazol-4-yl]quinoline-2,4-dicarboxamide] | 20
NC(=O)c1cc(C(=O)Nc2cn(Cc3ccncc3)nc2C(F)(F)F)c2ccccc2n1 [Example 41, N^4-[1-(pyridin-4-ylmethyl)-3-(trifluoromethyl)-1H-pyrazol-4-yl]quinoline-2,4-dicarboxamide] | 422
CS(=O)(=O)c1ccc(Cn2cc(NC(=O)c3cc(C(N)=O)nc4ccccc34)c(C(F)(F)F)n2)cc1 [Example 42, N^4-{1-[4-(methylsulfonyl)benzyl]-3-(trifluoromethyl)-1H-pyrazol-4-yl}quinoline-2,4-dicarboxamide] | 61
CS(=O)(=O)c1ccc(Cn2cc(NC(=O)c3cc(C(F)(F)F)nc4ccc(Br)cc34)c(C(F)(F)F)n2)cc1 [Example 43, 6-bromo-N-{1-[4-(methylsulfonyl)benzyl]-3-(trifluoromethyl)-1H-pyrazol-4-yl}-2-(trifluoromethyl)quinoline-4-carboxamide] | 440

The next lines start with the values.

IC50 [nM] | Structure (SMILES)
11 | CS(=O)(=O)c1ccc(Cn2cc(NC(=O)c3cc(C(N)=O)nc4cc(F)c(Cl)cc34)c(C(F)(F)F)n2)cc1 [Example 44, 6-chloro-7-fluoro-N^4-{1-[4-(methylsulfonyl)benzyl]-3-(trifluoromethyl)-1H-pyrazol-4-yl}quinoline-2,4-dicarboxamide]
126 | CS(=O)(=O)c1ccc(Cn2cc(NC(=O)c3cc(C(N)=O)nc4cc(F)ccc34)c(C(F)(F)F)n2)cc1 [Example 45, 7-fluoro-N^4-{1-[4-(methylsulfonyl)benzyl]-3-(trifluoromethyl)-1H-pyrazol-4-yl}quinoline-2,4-dicarboxamide]
4.7 | COc1ccc(Cn2cc(NC(=O)c3cc(C(N)=O)nc4cc(F)c(Cl)cc34)c(C(F)(F)F)n2)cc1 [Example 46, 6-chloro-7-fluoro-N^4-[1-(4-methoxybenzyl)-3-(trifluoromethyl)-1H-pyrazol-4-yl]quinoline-2,4-dicarboxamide]
138 | COc1ccc(Cn2cc(NC(=O)c3cc(C(F)(F)F)nc4ccc(Br)cc34)c(C(F)(F)F)n2)cc1 [Example 47, 6-bromo-N-[1-(4-methoxybenzyl)-3-(trifluoromethyl)-1H-pyrazol-4-yl]-2-(trifluoromethyl)quinoline-4-carboxamide]
193 | COc1ccc(Cn2cc(NC(=O)c3cc(OC)nc4ccccc34)c(C(F)(F)F)n2)cc1 [Example 48, 2-methoxy-N-[1-(4-methoxybenzyl)-3-(trifluoromethyl)-1H-pyrazol-4-yl]quinoline-4-carboxamide]
4.1 | COc1ccc(Cn2cc(NC(=O)c3cc(C(N)=O)nc4ccccc34)c(C(F)(F)F)n2)cc1 [Example 49, N^4-[1-(4-methoxybenzyl)-3-(trifluoromethyl)-1H-pyrazol-4-yl]quinoline-2,4-dicarboxamide]
3.9 | COc1ccc(Cn2cc(NC(=O)c3cc(C(N)=O)nc4cc(F)ccc34)c(C(F)(F)F)n2)cc1 [Example 50, 7-fluoro-N^4-[1-(4-methoxybenzyl)-3-(trifluoromethyl)-1H-pyrazol-4-yl]quinoline-2,4-dicarboxamide]
5.2 | Cc1nn(Cc2ccc(C#N)cc2)cc1NC(=O)c1cc(C2CC2)nc2ccc(Br)cc12 [Example 51, 6-bromo-N-[1-(4-cyanobenzyl)-3-methyl-1H-pyrazol-4-yl]-2-cyclopropylquinoline-4-carboxamide]
3.1 | Cc1nn(Cc2ccc(C#N)cc2)cc1NC(=O)c1cc(C(N)=O)nc2cc(F)ccc12 [Example 52, N^4-[1-(4-cyanobenzyl)-3-methyl-1H-pyrazol-4-yl]-7-fluoroquinoline-2,4-dicarboxamide]
4 | Cc1nn(Cc2ccc(C#N)cc2)cc1NC(=O)c1cc(C(N)=O)nc2cc(F)c(Cl)cc12 [Example 53, 6-chloro-N^4-[1-(4-cyanobenzyl)-3-methyl-1H-pyrazol-4-yl]-7-fluoroquinoline-2,4-dicarboxamide]
13 | Cc1ccc(Cn2cc(NC(=O)c3cc(C(N)=O)nc4ccccc34)c(C)n2)cc1 [Example 54, N^4-[3-methyl-1-(4-methylbenzyl)-1H-pyrazol-4-yl]quinoline-2,4-dicarboxamide]
